Reference: BindingDB's records for doi:10.1016/j.bmcl.2011.12.066 (Daiichi Sankyo, 2012)

Molecular target: T1, Peroxisome proliferator-activated receptor gamma (Homo sapiens, UniProt P37231)
T1 sequence (P37231 whole entry): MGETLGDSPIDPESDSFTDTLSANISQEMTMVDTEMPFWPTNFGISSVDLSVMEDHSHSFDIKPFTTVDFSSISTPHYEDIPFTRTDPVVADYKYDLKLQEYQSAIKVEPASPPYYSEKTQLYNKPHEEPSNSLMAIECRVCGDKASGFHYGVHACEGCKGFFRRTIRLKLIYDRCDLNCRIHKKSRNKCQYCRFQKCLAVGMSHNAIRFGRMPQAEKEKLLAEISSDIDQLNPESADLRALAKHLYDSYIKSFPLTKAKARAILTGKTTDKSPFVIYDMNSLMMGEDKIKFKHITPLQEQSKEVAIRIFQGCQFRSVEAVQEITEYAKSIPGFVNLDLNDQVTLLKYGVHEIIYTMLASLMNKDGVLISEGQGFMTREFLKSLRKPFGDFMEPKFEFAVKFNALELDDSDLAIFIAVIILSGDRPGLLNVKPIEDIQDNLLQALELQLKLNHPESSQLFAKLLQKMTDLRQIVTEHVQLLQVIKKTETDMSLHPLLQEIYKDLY
Assay: Partial agonist activity at human PPARgamma expressed in MG-63 cells by reporter gene-based transactivation assay

Compound `COC(=O)CCc1cc(CNC(=O)c2c(OC)cc(O)c3c2OC2=CC(=O)C(C(C)=O)C(=O)[C@]23C)c2ccccc2c1` (some centres not stated) has an EC50 of 0.13 µM.
In the case of `COc1cc(O)c2c(c1C(=O)NCc1cc(O)cc3ccccc13)OC1=CC(=O)C(C(C)=O)C(=O)[C@]12C` (some centres not stated), the EC50 is reported as 0.13 µM.
